Laboratory results taken from US10874610B2, “Extracellular vesicle-based diagnostics and engineered exosomes for targeted therapeutics against cancer” (Northwestern University, priority 2016, dated 2020).

System: BCSCs
Assay: Cellular internalization pathway of bioengineered exosomes using endocytic pathway inhibitors
Format: cell-based
Settings: BCSCs pretreated with inhibitor, then PKH67 labeled exosomes; microscopy and flow cytometry
Protocol: The mode of cellular internalization of the bioengineered exosomes was examined by using different endocytic pathway inhibitors. BCSCs were pretreated with different inhibitors including sucrose (inhibitor of clathrin-mediated endocytosis), amiloride (inhibitor of macropinocytosis), and filipin (inhibitor of caveolar uptake pathway), followed by the incubation with PKH67 labeled exosomes.

Structure (SMILES) | effect of inhibitor on cellular internalization of exosomes
N=C(N)NC(=O)c1nc(Cl)c(N)nc1N [amiloride] | inhibited
OC[C@H]1O[C@@](CO)(O[C@H]2O[C@H](CO)[C@@H](O)[C@H](O)[C@H]2O)[C@@H](O)[C@@H]1O [sucrose] | inhibited
